Measurements published in patent US20230024384A1, “C[…] COMPOUND FOR TREATING FRAGILE X SYNDROME OR RELATED DEVELOPMENTAL DISORDERS” (NEUROVENTI, priority 2020, published 2023).

Legend:
Format in all cases: in vivo, mouse
[1] = system: animal model treated with apomorphine in wild-type mice; experiment: pre-wave suppression test in apomorphine-treated wild-type mice; conditions: lisuride intraperitoneally after apomorphine, FIG. 5
Protocol: (§1) Pre-pulse suppression (%)=100−[(startle response to pre-stimulus+stimulus)/(start-up response to stimulus)]*100 [Equation 1]
(§2) Startle response was confirmed in an animal model treated with apomorphine or MK-801 in wild-type mice. […] Thereafter, sensorimotor gating was evaluated through a pre-wave suppression test (converted using Equation 1 above).

[2] = system: Fmr1-deficient animal model (fragile X syndrome); experiment: pre-pulse (pre-wave) suppression test in Fmr1-deficient animal model; conditions: Fmr1 KO mice, lisuride intraperitoneally, FIG. 3
Protocol: (§3) Purchased a 5-week-old Fmr1 knockout mouse (Jackson Laboratory, USA) weighing about 22 g to 24 g, and acclimatized to an environment with a temperature of 23±2° C. and humidity of 55±10% and a light-dark cycle of 12 hours while allowing them to freely consume water and feed (Experimental Animal Center, Konkuk University). As experimental animals, wild-type (WT) with normal FMRP expression and male KO mice lacking FMRP (fragile X mental retardation protein) expression (fragile X syndrome; FXS) were used. Dosing and experiments were performed according to the age of the week. Dosing was performed at the same time. Behavioral experiments were conducted 30 minutes after administration. […] Meanwhile, 0.25 (v/v) % DMSO was intraperitoneally administered to the control group.
The startle response was confirmed using an Fmr1-deficient animal model. […] Thereafter, sensorimotor gating was evaluated through a pre-wave suppression test (converted using Equation 1 below).
as §1

[3] = system: animal model treated with MK-801 in wild-type mice; experiment: pre-wave suppression test in MK-801-treated wild-type mice; conditions: lisuride intraperitoneally after MK-801, FIG. 6
Protocol: as §1, §2

[4] = system: Fmr1-deficient animal model (fragile X syndrome); experiment: home-cage test in Fmr1-deficient animal model; conditions: Fmr1 KO mice, lisuride once daily for 5 days, sniffing measured for 15 minutes, FIG. 2
Protocol: as §3
A home-cage test evaluates sociability in the breeding cage removing the possible confounders of stress due to abrupt changes in the environment. After raising the group of animals to be tested together, a wire cage was placed inside the home cage and allowed the animals to acclimatize for 30 minutes. A stimulus mouse was placed in a wire cage and the duration of sniffing by the subject mice to the wire cage was measured for 15 minutes.

[5] = system: Fmr1-deficient animal model (fragile X syndrome); experiment: three-chamber test in Fmr1-deficient animal model; conditions: Fmr1 KO mice, lisuride intraperitoneally 50 ug/kg, test 30 minutes after administration, FIG. 1
Protocol: as §3
If the animal model spent more time with a novel mouse rather than a familiar mouse, it is judged to be social. The test animal was exposed to the stimulus mouse for 10 minutes, and to a new stimulus mouse (novel) for another 10 minutes. In this case, the old mouse is called familiar and the new mouse is called a novel mouse. The time the test mouse explored each stimulus mouse was measured and expressed as %. As a result of the experiment, it was confirmed that the wild type spent more time with the novel mouse than the familiar mouse, indicating normal sociability. […]

## CCN(CC)C(=O)N[C@H]1C=C2c3cccc4[nH]cc(c34)C[C@H]2N(C)C1 [lisuride, 1,1-Diethyl-3-(7-methyl-4,6,6a,7,8,9-hexahydro-indolo [4,3-fg]quinolin-9-yl)-urea]
[1]
  pre-pulse suppression (sensorimotor gating): pre-pulse suppression was restored
[2]
  pre-pulse suppression (sensorimotor gating): pre-pulse suppression was restored
[3]
  pre-pulse suppression (sensorimotor gating): pre-pulse suppression was restored
[4]
  sniffing time to wire cage with stimulus mouse (sociability): sniffing time increased again
[5]
  sociability: time spent with novel mouse versus familiar mouse: more time was spent with the novel mouse than with the familiar mouse
